Blank lines part the entries; values can stand above or below the molecule they belong to.
Key:
EGFR [1] = molecular target: EGFR (UniProt P00533); conditions: concentration not given here
EGFR (Hamster) = EGFR (Hamster) (UniProt P00533)
EGFR [2] = molecular target: EGFR (UniProt P00533)
CDK2 (human) [3] = molecular target: CDK2 (human) (UniProt P24941); test: Enzyme Assay
EGFR [4] = molecular target: EGFR (UniProt P00533); remark: listed apart in the source
PIK3CB (Human) [5] = molecular target: PIK3CB (Human) (UniProt P42338); test: Cell-Based Assay
Chain of PIK3CB (Human) (P42338 whole entry, looked up): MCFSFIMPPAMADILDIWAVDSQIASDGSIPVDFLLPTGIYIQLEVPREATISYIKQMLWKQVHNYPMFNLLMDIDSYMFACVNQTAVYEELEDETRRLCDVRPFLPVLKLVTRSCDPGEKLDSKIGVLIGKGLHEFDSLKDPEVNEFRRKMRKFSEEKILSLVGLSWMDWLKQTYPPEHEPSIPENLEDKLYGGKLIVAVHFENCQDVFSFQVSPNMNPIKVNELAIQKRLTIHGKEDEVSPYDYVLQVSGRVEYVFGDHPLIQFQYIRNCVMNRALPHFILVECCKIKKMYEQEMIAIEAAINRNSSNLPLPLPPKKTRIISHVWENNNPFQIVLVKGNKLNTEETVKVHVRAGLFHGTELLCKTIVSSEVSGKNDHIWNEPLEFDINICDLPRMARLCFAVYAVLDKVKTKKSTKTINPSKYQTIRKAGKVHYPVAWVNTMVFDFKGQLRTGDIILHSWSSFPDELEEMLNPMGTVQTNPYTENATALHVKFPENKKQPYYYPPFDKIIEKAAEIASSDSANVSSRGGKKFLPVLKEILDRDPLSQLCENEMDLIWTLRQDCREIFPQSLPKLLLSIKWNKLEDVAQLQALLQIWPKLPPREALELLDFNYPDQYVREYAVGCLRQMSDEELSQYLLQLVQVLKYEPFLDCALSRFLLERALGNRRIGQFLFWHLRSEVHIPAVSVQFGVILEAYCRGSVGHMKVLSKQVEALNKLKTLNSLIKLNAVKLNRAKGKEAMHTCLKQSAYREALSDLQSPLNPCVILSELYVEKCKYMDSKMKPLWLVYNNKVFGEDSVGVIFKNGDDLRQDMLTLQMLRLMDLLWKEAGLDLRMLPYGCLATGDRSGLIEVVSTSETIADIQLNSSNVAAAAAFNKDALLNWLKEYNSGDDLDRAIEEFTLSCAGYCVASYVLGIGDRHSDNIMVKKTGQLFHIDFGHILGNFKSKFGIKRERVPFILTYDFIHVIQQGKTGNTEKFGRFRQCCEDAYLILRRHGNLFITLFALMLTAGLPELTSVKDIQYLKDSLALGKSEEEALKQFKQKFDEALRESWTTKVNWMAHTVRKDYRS

CDK2 (human) [6] = molecular target: CDK2 (human) (UniProt P24941); test: Enzyme Assay; remark: listed apart in the source
EGFR [7] = molecular target: EGFR (UniProt P00533); remark: listed apart in the source
PIK3CG = PIK3CG (UniProt P48736); test: Inhibition of PIK3CG Kinase Activity
Chain of PIK3CG (P48736 whole entry, looked up): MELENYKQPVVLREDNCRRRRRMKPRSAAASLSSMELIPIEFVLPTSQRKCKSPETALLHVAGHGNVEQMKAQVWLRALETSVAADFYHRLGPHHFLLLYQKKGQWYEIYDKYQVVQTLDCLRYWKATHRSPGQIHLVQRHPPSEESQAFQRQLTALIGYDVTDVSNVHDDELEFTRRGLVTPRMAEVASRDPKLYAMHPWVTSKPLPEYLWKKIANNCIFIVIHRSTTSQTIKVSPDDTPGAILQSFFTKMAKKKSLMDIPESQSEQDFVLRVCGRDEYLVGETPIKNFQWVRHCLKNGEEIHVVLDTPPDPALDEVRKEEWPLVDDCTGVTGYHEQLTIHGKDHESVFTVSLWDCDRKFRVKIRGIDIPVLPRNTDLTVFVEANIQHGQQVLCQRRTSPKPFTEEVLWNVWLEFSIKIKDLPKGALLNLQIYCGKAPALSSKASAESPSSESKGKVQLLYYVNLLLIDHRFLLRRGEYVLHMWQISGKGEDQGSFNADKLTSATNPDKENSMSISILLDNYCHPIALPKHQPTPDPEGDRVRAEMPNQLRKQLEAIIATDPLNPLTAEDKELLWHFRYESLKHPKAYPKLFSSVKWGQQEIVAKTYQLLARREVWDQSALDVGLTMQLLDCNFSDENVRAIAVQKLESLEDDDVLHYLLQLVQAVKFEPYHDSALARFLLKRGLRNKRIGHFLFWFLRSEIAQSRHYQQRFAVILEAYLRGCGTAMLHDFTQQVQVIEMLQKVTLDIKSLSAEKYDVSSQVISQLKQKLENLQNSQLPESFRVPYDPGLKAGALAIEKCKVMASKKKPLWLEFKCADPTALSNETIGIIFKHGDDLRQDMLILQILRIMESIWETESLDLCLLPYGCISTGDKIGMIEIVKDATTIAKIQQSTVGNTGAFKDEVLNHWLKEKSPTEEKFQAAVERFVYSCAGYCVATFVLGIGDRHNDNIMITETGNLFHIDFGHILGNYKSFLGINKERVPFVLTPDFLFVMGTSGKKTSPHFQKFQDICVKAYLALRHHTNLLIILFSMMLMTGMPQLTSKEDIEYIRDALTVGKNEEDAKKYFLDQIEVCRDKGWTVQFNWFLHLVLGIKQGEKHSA

PIK3CG;PIK3CA (human) = PIK3CG;PIK3CA (human) (UniProt P48736); test: Antiproliferation of PC3-MM2 Cells; conditions: pc-3
Chain of PIK3CG;PIK3CA (human) (P48736 whole entry, looked up): as above

MAPK14 = MAPK14 (UniProt Q16539); test: Enzyme Assay
Chain of MAPK14 (Q16539 whole entry, looked up): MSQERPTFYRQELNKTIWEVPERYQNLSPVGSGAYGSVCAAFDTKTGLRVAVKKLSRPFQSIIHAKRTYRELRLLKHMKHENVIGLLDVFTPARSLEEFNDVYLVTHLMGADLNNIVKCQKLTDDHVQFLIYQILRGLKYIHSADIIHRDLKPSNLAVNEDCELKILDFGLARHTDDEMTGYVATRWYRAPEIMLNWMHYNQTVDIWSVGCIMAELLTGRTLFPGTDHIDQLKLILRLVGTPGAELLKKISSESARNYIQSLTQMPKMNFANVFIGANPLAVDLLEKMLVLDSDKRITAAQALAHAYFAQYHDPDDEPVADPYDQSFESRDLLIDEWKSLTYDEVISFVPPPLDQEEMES

EGFR (mouse) = EGFR (mouse) (UniProt P00533)
PIK3CD (Human) [8] = molecular target: PIK3CD (Human) (UniProt O00329); test: Enzyme Assay
Chain of PIK3CD (Human) (O00329 whole entry, looked up): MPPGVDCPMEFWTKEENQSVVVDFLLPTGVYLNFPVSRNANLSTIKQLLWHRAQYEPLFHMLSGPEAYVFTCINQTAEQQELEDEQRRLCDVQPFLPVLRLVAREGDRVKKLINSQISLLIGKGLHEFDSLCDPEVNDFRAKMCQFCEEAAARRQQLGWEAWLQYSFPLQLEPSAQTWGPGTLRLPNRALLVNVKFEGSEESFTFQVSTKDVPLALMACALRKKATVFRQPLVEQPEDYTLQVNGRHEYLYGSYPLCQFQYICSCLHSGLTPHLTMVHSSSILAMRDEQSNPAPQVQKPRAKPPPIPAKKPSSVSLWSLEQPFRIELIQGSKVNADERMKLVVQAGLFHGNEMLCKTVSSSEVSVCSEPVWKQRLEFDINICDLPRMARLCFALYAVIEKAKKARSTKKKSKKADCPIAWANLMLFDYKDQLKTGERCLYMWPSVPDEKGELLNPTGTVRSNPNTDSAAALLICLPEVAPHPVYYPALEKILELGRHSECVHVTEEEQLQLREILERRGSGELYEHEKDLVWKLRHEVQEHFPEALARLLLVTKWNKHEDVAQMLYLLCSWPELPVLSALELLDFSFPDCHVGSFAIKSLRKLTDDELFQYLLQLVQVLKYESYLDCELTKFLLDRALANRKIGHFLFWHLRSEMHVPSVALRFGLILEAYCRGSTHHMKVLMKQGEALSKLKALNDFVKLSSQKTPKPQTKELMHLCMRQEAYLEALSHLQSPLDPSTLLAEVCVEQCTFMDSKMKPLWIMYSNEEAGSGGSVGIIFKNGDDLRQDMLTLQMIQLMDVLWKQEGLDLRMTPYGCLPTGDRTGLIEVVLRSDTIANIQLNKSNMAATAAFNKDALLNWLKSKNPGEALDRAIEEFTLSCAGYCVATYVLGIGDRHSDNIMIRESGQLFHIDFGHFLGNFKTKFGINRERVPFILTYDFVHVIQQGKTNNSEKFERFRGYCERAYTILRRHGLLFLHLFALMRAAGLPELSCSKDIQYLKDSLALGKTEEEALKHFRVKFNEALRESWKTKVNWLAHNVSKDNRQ

PIK3CG (human) [9] = molecular target: PIK3CG (human) (UniProt P48736); test: Enzyme Assay
Chain of PIK3CG (human) (P48736 whole entry, looked up): as the sequence (P48736 whole entry, looked up) above

PIK3CA (human) = PIK3CA (human) (UniProt P42336); test: Inhibition of PIK3CA Kinase Activity
PIK3CD (Human) [10] = molecular target: PIK3CD (Human) (UniProt O00329); test: Inhibition of PIK3CD Kinase Activity
PIK3CG (human) [11] = molecular target: PIK3CG (human) (UniProt P48736); test: Inhibition of PIK3CG Kinase Activity
PIK3CB (Human) [12] = molecular target: PIK3CB (Human) (UniProt P42338); test: Inhibition of PIK3CB Kinase Activity

Chain of EGFR (P00533 whole entry, looked up): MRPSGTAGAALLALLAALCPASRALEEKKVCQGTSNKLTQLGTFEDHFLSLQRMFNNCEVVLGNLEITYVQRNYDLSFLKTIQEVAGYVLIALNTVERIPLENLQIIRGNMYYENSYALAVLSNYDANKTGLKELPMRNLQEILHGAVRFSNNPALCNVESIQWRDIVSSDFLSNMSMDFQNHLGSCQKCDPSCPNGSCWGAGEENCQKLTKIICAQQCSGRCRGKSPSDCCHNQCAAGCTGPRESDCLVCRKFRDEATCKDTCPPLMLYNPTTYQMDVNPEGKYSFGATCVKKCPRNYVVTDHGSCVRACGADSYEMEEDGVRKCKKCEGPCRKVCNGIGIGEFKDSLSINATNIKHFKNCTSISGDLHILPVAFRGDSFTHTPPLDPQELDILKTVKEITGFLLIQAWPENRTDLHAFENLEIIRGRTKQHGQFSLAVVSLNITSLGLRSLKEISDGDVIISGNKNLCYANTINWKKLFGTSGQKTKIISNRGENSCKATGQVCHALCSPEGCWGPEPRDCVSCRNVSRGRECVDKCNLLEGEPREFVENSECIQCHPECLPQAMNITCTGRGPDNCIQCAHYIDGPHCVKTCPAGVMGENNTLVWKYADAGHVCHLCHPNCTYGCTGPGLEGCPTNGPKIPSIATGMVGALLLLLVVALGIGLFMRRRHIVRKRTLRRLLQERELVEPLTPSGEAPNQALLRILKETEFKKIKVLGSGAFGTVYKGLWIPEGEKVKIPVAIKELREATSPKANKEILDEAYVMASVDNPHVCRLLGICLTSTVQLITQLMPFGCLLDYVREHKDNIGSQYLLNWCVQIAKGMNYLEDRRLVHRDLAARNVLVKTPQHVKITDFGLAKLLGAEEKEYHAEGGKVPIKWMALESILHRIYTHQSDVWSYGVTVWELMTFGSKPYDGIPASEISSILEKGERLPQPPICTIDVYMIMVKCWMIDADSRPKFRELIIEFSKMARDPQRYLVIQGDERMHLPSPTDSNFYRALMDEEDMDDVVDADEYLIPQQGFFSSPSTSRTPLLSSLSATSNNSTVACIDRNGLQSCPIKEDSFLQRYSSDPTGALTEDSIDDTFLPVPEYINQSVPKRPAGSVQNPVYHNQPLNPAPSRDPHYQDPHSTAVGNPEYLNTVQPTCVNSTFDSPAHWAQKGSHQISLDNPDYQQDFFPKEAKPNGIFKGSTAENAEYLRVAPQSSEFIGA

Structure (SMILES): NC(=O)c1c(NC(=O)C2CC2)sc2c(O)c(Br)ccc12
inhibition (EGFR [1]): > 50%

Structure (SMILES): CNc1cc2c(Nc3cccc(Br)c3)ncnc2cn1
IC50 (EGFR [2]): 0.008 nM

Structure (SMILES): CC(C)n1cnc2c(NCc3cccnc3)nc(NCC(O)(C(F)(F)F)C(F)(F)F)nc21
IC50 (CDK2 (human) [3]): 949 nM

Structure (SMILES): N#Cc1cccc(NC(=O)Nc2ncnc3nn4ccccc4c23)c1
IC50 (EGFR [7]): > 10000 nM

Structure (SMILES): NN=C1CCc2c(sc(NC(=O)C3CC3)c2C(N)=O)C1
inhibition (EGFR [1]): > 50%

Structure (SMILES): N#CN=C1NC(=O)/C(=C/c2ccc3nccnc3c2)S1
IC50 (PIK3CG): < 1000 nM

Structure (SMILES): COc1ccc2c(c1)c(/C=C1\Oc3cc(O)cc(O)c3C1=O)c1n2CCOC1
IC50 (PIK3CG;PIK3CA (human)): 1910 nM

Structure (SMILES): Cc1nc2cnc3ccc(C#Cc4cccnc4)cc3c2n1-c1ccc(C(C)(C)C#N)cc1
IC50 (PIK3CD (Human) [8]): 34 nM
IC50 (PIK3CG (human) [9]): 112 nM
IC50 (PIK3CA (human)): 56 nM
IC50 (PIK3CD (Human) [10]): 35 nM
IC50 (PIK3CG (human) [11]): 117 nM
IC50 (PIK3CB (Human) [12]): 446 nM

Structure (SMILES): COc1cc2c(Nc3cccc(Br)c3)ncnc2cn1
IC50 (EGFR [2]): 0.0026 nM

Structure (SMILES): O=C(Nc1cccc([N+](=O)[O-])c1)Nc1ncnc2nn3ccccc3c12
IC50 (EGFR [7]): > 10000 nM

Structure (SMILES): O=C(Nc1ccc(C(F)(F)F)cc1)Nc1ncnc2nn3ccccc3c12
IC50 (EGFR [7]): > 10000 nM

Structure (SMILES): C=C[C@@]1(C)CC[C@](C)(C(C)C)c2cc3c4c(c[nH]c4c21)C[C@@H](CO)NC(=O)[C@H](C(C)C)N3C
ID50 (EGFR (mouse)): 2.23 nM

Structure (SMILES): COc1ccc2ncnc(Nc3cccc(Br)c3)c2c1
IC50 (EGFR [2]): 30 nM

Structure (SMILES): O=C(Nc1ccc(Br)cc1)Nc1ncnc2nn3ccccc3c12
IC50 (EGFR [7]): > 10000 nM

Structure (SMILES): NC(=O)c1c(NC(=O)C2CC2)sc2c1CCC(Br)(Br)C2=O
inhibition (EGFR [1]): > 50%

Structure (SMILES): CON=C1NC(=O)/C(=C/c2ccc3c(c2)OCO3)S1
IC50 (PIK3CG): < 1000 nM

Structure (SMILES): COc1ccc2c(c1)c(/C=C1\Oc3cc(O)cc(O)c3C1=O)c1n2CCN(C)C1
IC50 (PIK3CG;PIK3CA (human)): 1610 nM

Next, values leading:

IC50 (EGFR (Hamster)): > 100000 nM
Structure (SMILES): COC(=O)c1cc(N=Cc2ccc(O)cc2O)ccc1O

IC50 (EGFR (Hamster)): > 100000 nM
Structure (SMILES): O=C(O)c1cc(N=Cc2ccccc2O)ccc1O

IC50 (EGFR [4]): > 10000 nM
Structure (SMILES): CN(C)CCCn1nc(C2=C(c3cn(-c4cccs4)c4ccccc34)C(=O)NC2=O)c2ccccc21

IC50 (EGFR [4]): > 10000 nM
Structure (SMILES): CN(C)CCCn1nc(C2=C(c3cn(-c4cccnc4)c4ccccc34)C(=O)NC2=O)c2ccccc21

IC50 (PIK3CB (Human) [5]; mda-468): 5970 nM
Structure (SMILES): C[C@H](Nc1ncnc(N)c1C#N)c1cc2cccc(F)c2nc1-c1ccccc1S(C)(=O)=O

IC50 (EGFR [4]): > 10000 nM
Structure (SMILES): CN(C)CCCn1nc(C2=C(c3cn(-c4ccc5ccccc5c4)c4ccccc34)C(=O)NC2=O)c2ccccc21

IC50 (CDK2 (human) [6]): 70 nM
IC50 (CDK2 (human) [3]): 200 nM
Structure (SMILES): CC[C@H](Nc1nc(NCc2cccnc2)c2ncn(C(C)C)c2n1)C(C)(C)O

IC50 (PIK3CG): < 1000 nM
Structure (SMILES): COC(=O)c1sccc1S(=O)(=O)N=C1NC(=O)/C(=C/c2ccc3ncccc3c2)S1

IC50 (PIK3CG;PIK3CA (human)): 3400 nM
Structure (SMILES): COc1ccc2c(c1)c(/C=C1\Oc3cc(O)ccc3C1=O)c1n2CCC1

Ki (MAPK14): 5 nM
Structure (SMILES): CC(C)S(=O)(=O)n1c(N)nc2ccc(-c3[nH]c(-c4c(F)cccc4F)nc3-c3ccccc3)cc21

IC50 (PIK3CG): < 1000 nM
Structure (SMILES): CN=C1NC(=O)/C(=C/c2ccc3ncnc(N(C)C)c3c2)S1

IC50 (EGFR [7]): > 10000 nM
Structure (SMILES): O=C(Nc1ccc(F)cc1)Nc1ncnc2nn3ccccc3c12

ID50 (EGFR (mouse)): 89 nM
Structure (SMILES): CCCCC[C@H](Cc1ccc2c3c(c[nH]c13)C[C@@H](CO)NC(=O)[C@H](C(C)C)N2C)NC(=O)c1ccc(N=[N+]=[N-])cc1

IC50 (PIK3CB (Human) [5]; mda-468): > 10000 nM
Structure (SMILES): C[C@H](Nc1ncnc(N)c1C#N)c1nc2cccc(C#N)c2nc1-c1ccccc1S(C)(=O)=O

IC50 (PIK3CB (Human) [5]; mda-468): > 10000 nM
IC50 (PIK3CB (Human) [5]; mda-mb-468): > 10000 nM
Structure (SMILES): C[C@H](Nc1ncnc(N)c1C#N)c1nc2cccc(Cl)c2nc1-c1ccccc1S(C)(=O)=O

IC50 (PIK3CG): < 1500 nM
Structure (SMILES): O=C1NC(=NCc2ccccc2)S/C1=C\c1ccc2c(c1)OCO2

IC50 (PIK3CA (human)): 59 nM
IC50 (PIK3CD (Human) [10]): 18 nM
IC50 (PIK3CG (human) [11]): 31 nM
IC50 (PIK3CB (Human) [12]): 1010 nM
Structure (SMILES): CC1(C)CNC(=O)c2sc(N3CCOC[C@@H]3Cc3c[nH]c4ncccc34)nc2C1

IC50 (EGFR [4]): > 10000 nM
Structure (SMILES): CN(C)CCCn1nc(C2=C(c3cn(-c4cccc5ccccc45)c4ccccc34)C(=O)NC2=O)c2ccccc21

IC50 (PIK3CG;PIK3CA (human)): 5050 nM
Structure (SMILES): COc1ccc2c(c1)c(/C=C1\Oc3cc(O)cc(O)c3C1=O)c1n2CCN(C)C1=O

IC50 (EGFR (Hamster)): > 100000 nM
Structure (SMILES): COC(=O)c1cc(N=Cc2ccccc2O)ccc1O

IC50 (PIK3CB (Human) [5]; mda-468): > 10000 nM
Structure (SMILES): C[C@H](Nc1ncnc(N)c1C#N)c1cc2ccc(F)cc2nc1-c1ccccc1S(C)(=O)=O

IC50 (MAPK14): 303 nM
Structure (SMILES): Nc1ccccc1Nc1ccc2c(c1)OCc1ccccc1C2=O

inhibition (EGFR [1]): > 50%
Structure (SMILES): NC(=O)c1c(NC(=O)Nc2ccc(F)cc2)sc2c1CCC(=O)C2

IC50 (EGFR (Hamster)): > 10000 nM
Structure (SMILES): O=C(O)c1cccc(N=Cc2cc(O)ccc2O)c1

IC50 (CDK2 (human) [3]): 100 nM
Structure (SMILES): CC[C@H](Nc1nc(NCc2cccc(Cl)c2)c2ncn(C(C)C)c2n1)[C@@H](C)O
